Data from publication PMC9311059, “P‐Glycoprotein and Breast Cancer Resistance Protein Transporter Inhibition by Cyclosporine and Quinidine on the Pharmacokinetics of Oral Rimegepant in Healthy Subjects” (Clinical Pharmacology in Drug Development, 2022).
Values joined by “and” are separate entries in the source; they are usually repeats but may differ in a detail not shown here. Equal entries are not always repeated. Where two headings read alike, the source gives them in different places.

Key:
P‐gp = system: P‐gp; parameters: method as in ref 7 = [7]; PMID 32058712; doi:10.1021/acs.jmedchem.9b01810; 7 Dubowchik GM , Conway CM , Xin AW . Blocking the CGRP pathway for acute and preventive treatment of migraine: the evolution of success . J Med Chem . 2020; 63 ( 13 ): 6600 ‐ 6623 . 32058712 10.1021; conditions: in vitro; cited from earlier work
[1] = system: organic anion transporting polypeptide 1B1; parameters: method as in ref 7 = [7]; PMID 32058712; doi:10.1021/acs.jmedchem.9b01810; 7 Dubowchik GM , Conway CM , Xin AW . Blocking the CGRP pathway for acute and preventive treatment of migraine: the evolution of success . J Med Chem . 2020; 63 ( 13 ): 6600 ‐ 6623 . 32058712 10.1021; conditions: in vitro; cited from earlier work
[2] = parameters: method as in unpublished; conditions: rimegepant 75 mg with itraconazole 200 mg once daily for 7 consecutive days, healthy adults; ref unpublished; cited from earlier work
CYP2C9 = system: CYP2C9; parameters: method as in ref 7 = [7]; PMID 32058712; doi:10.1021/acs.jmedchem.9b01810; 7 Dubowchik GM , Conway CM , Xin AW . Blocking the CGRP pathway for acute and preventive treatment of migraine: the evolution of success . J Med Chem . 2020; 63 ( 13 ): 6600 ‐ 6623 . 32058712 10.1021; conditions: implicated in vitro; CYP2C9 allelic variation without significant influence; cited from earlier work
[3] = parameters: method as in unpublished; conditions: rimegepant 75 mg with fluconazole 400 mg once daily for 8 consecutive days; ref unpublished; cited from earlier work
[4] = Part 1: pharmacokinetics of rimegepant 75 mg ODT alone or coadministered with cyclosporine 200 mg, 2-way crossover
Description: This phase 1, open‐label, randomized, single‐dose, 2‐way crossover, 2‐part, drug‐drug interaction study was conducted at a single center (Syneos Health, Québec, Canada). Subjects were screened within 28 days preceding administration of study medication. In part 1, fasted subjects were randomly assigned to a single dose of rimegepant 75 mg ODT or a single dose of rimegepant 75 mg ODT coadministered with cyclosporine 200 mg (2 × 100‐mg capsules). […] Following the completion of part 1, an interim PK analysis and review of data were performed. Part 2 was to be conducted only if the rimegepant AUC from time 0 to infinity (AUC0‐inf) ratio of geometric means in part 1 was increased by >50% when coadministered with cyclosporine. In part 2, fasted subjects were randomly assigned to a single dose of rimegepant 75 mg ODT or a single dose of rimegepant 75 mg ODT coadministered with quinidine 600 mg (2 × 300‐mg tablets).
In part 1, subjects received 1 of the following treatments under fasting conditions: 1 oral dose of rimegepant 75 mg ODT (Catalent Pharma Solutions, Swindon, UK) or 1 oral dose of rimegepant 75 mg ODT coadministered with cyclosporine 200 mg (Novartis Pharmaceuticals Canada Inc., Dorval, Quebec, Canada). In part 2, subjects received 1 of the following treatments under fasting conditions: 1 oral dose of rimegepant 75 mg ODT alone or 1 oral dose of rimegepant 75 mg ODT coadministered with quinidine 600 mg (Sandoz Inc., West Princeton, New Jersey). In parts 1 and 2, the interval between treatments could not exceed 2 minutes.
For each treatment, subjects were confined from the morning of day −1 until after the 24‐hour postdose blood draw on day 2. Subjects returned for all subsequent blood draws. No food was allowed from at least 10 hours before dosing until at least 4 hours after dosing. Meals were standardized and similar in composition between periods. Except for water given with cyclosporine and quinidine, no fluids were allowed from 1 hour before dosing until 1 hour after dosing. Water was provided ad libitum at all other times. […] When appropriate, subjects were accompanied by a staff member while walking.
In each period, 20 blood samples for PK assessment were collected at the following time points: before dosing; 5, 10, 20, 30, 40, and 50 minutes after dosing; and 1, 1.5, 2, 2.5, 3, 4, 5, 6, 8, 12, 24 (day 2), 48 (day 3), and 72 (day 4) hours after dosing. […] Plasma samples were assayed for rimegepant using ultra‐performance liquid chromatography with tandem mass spectrometry detection (LC‐MS/MS). The quantifiable range was 10 to 5000 ng/mL. Plasma samples containing human ethylenediaminetetraacetic acid (EDTA) K2 plasma as an anticoagulant were processed using automated protein precipitation before LC‐MS/MS analysis. The internal standard was rimegepant‐^13C2d4. The validation was performed using an API 5000 LC/MS/MS system with Analyst software, version 1.6.3 (SCIEX, Framingham, Massachusetts). The pump flow was isocratic, with a flow rate set at 0.600 mL/min. The column was an Acquity UPLC BEH C18, 50×2.1 mm, 1.7 μm (Waters Corporation, Framingham, Massachusetts), which was maintained at a temperature of 60°C and contained Milli‐Q type water/acetonitrile with ammonium acetate and acetic acid. The mass‐to‐charge ratios monitored for rimegepant were 535.4 for the precursor ion and 256.1 for the product ion, whereas for the internal standard, they were 541.4 for the precursor ion and 256 for the product ion. […] Incurred sample reanalysis was carried out on ≈10% of randomly selected samples.
The effects of cyclosporine (part 1) or quinidine (part 2) on the single‐dose PK of rimegepant were evaluated using general linear model procedures in SAS (SAS Institute, Cary, North Carolina).

[5] = parameters: method as in PMID 23965396; conditions: single and 2‐week multiple daily oral doses up to 600 mg; cited from earlier work
[6] = Safety assessment (adverse events, ECG, vital signs, S-STS) in parts 1 and 2
Description: Safety was assessed using adverse events (AEs) that occurred from signing informed consent through 4 days after the last study drug administration, physical examination, body measurements, and the S‐STS. Safety was also assessed through vital signs (blood pressure, heart rate, respiratory rate, oral temperature), and electrocardiography. In part 2, cardiac telemetry was recorded continuously from ≈10 hours before dosing until 6 hours after dosing in each period (8 hours after dosing in subjects receiving quinidine with an increased QT interval at the 6‐hour assessment).
Safety laboratory assessments included a QuantiFERON‐TB test (Hilden, Germany); pregnancy tests (urine and serum); drug, alcohol, and cotinine screen; hematology; biochemistry; coagulation (in case of abnormal liver function tests); serology; and urinalysis.
Safety data were summarized but not subjected to inferential analysis.

[7] = cited from earlier work
[8] = by cyclosporine 200 mg, single dose rimegepant 75 mg ODT, vs rimegepant alone
[9] = coadministration with cyclosporine 200 mg, rimegepant 75 mg
[10] = strong P‐gp inhibitors (cyclosporine, quinidine), parts 1 and 2
[11] = parts 1 and 2, rimegepant alone or coadministered

In the case of `N[C@@H]1c2cccnc2[C@H](OC(=O)N2CCC(n3c(=O)[nH]c4ncccc43)CC2)CC[C@H]1c1cccc(F)c1F` [Rimegepant], the “substrate of P‐gp transporter” value (P‐gp) is listed as “substrate”, the “substrate of organic anion transporting polypeptide 1B1” value [1] is listed as “not a substrate” and the “increase in rimegepant AUC” value [2] is listed as 400%. For the same compound, the “increase in rimegepant Cmax” value [2] was 40%, the “role of CYP2C9 in metabolism” value (CYP2C9) was “not to be a significant mediator of metabolism in vivo” and the “change in rimegepant Cmax” value [3] was “no change”. For the same compound, the “increase in rimegepant AUC” value [3] was 80%, the “increase in rimegepant AUC0‐inf” value [4, 8] was 60.1% and 60% and the “increase in rimegepant Cmax” value [4, 8] was 41%. The “rimegepant AUC0‐inf geometric mean ratio (90% CI) versus rimegepant alone” value [4, 9] was 1.6 (1.49‐1.72), the “rimegepant Cmax geometric mean ratio (90% CI) versus rimegepant alone” value [4, 9] was 1.41 (1.27‐1.57) and the Tmax ([4]; human, in vivo, po, 75 mg) was 2 h. The Tmax ([4]; human, plasma, po) was 2.5 h, the Tmax ([4]; human, plasma, po, 75 mg) was 1.99 h and the half-life ([4]; human, plasma, po, 75 mg) was 7.59 h. For the same compound, the AUC ([4]; human, plasma, po, 75 mg, AUC0‐inf, arithmetic mean (percent coefficient of variation), part 1, rimegepant ODT 75 mg alone, single oral dose, N 15) was 4270 ng·h/mL, the AUC ([4]; human, plasma, po, 75 mg, AUC0‐inf, geometric least squares mean, part 1, rimegepant 75 mg ODT alone, single oral dose, fasted, N = 15) was 4110 ng·h/mL and the AUC ([4]; human, plasma, po, 75 mg, AUC0‐t, arithmetic mean (percent coefficient of variation), part 1, rimegepant ODT 75 mg alone, single oral dose, N 15) was 4250 ng·h/mL. The AUC ([4]; human, plasma, po, 75 mg, AUC0‐t, geometric least squares mean, part 1, rimegepant 75 mg ODT alone, single oral dose, fasted, N = 15) was 4090 ng·h/mL, the Cmax ([4]; human, plasma, po, 75 mg, arithmetic mean (percent coefficient of variation), part 1, rimegepant ODT 75 mg alone, single oral dose, N 15) was 862 ng/mL and the Cmax ([4]; human, plasma, po, 75 mg, geometric least squares mean, part 1, rimegepant 75 mg ODT alone, single oral dose, fasted, N = 15) was 824 ng/mL. For the same compound, the “CL/F, arithmetic mean (percent coefficient of variation)” value ([4]; part 1, rimegepant ODT 75 mg alone, single oral dose, N 15) was 19.26 (31.84) L/h, the “difference in geometric mean t1/2el between treatments” value ([4]; part 1, rimegepant with cyclosporine vs rimegepant alone) was no more than 5% and the “increase in rimegepant exposure by strong P‐gp inhibitors, lower bound” value [4, 10] was greater than 50%. The “increase in rimegepant exposure by strong P‐gp inhibitors, upper bound” value [4, 10] was less than 2 fold, the tolerability [5] was “well tolerated” and the “subjects discontinued due to AEs” value ([6]; part 2, rimegepant group: sinus tachycardia, rimegepant‐quinidine group: false‐positive SARS‐CoV‐2 test) was 1 subjects. The “nausea (TEAE), number of subjects” value ([6]; parts 1 and 2) was 1 subjects, the “serious AEs” value [6, 11] was “No serious AEs were reported” and the “severity of TEAEs” value [6, 11] was “mild or moderate”. The tolerability ([6]; single oral dose rimegepant 75 mg ODT alone or coadministered with cyclosporine or quinidine, parts 1 and 2) was “well tolerated and safe”, the absolute oral bioavailability ([7]; rimegepant ODT) was “≈ 64%” and the “median time to maximum plasma concentration (tmax)” value ([7]; sublingual administration of rimegepant ODT, fasting conditions) was 1.5 h.
